Literature values, collected in US7514574B2, “Biodegradable penetration enhancers with multiple hydrophilic moieties” (priority 2003, dated 2009).

How the values were obtained:
[1] = system: human cadaver skin; conditions: tritiated water, Hirvonen et al (1993)
[2] = system: mice; conditions: mouse, in vivo, ip

SMILES | increase of skin permeability to T2O (enhanced flux over passive flux) [1] | LD50 [2]
CCCCCCCCCCCCOC(=O)CN(C)C [dodedyl, (N,N-dimethyl amino) acetate, dodecyl (N N-dimethyl amino) acetate] | 13 times | –
CCCCCCCCCCCCN1CCCCCC1=O [Azone, 1-dodecylazacycloheptane-2-one] | 8 times | 232 mg/kg
